Experimental data taken from patent publication US20170044208A1, “SELECTIVE GLUCOCORTICOID RECEPTOR LIGANDS” (The University of Manchester, priority 2013, published 2017).

Tests used:
rat adjuvant arthritis = assay: Established rat adjuvant arthritis; format: in vivo; conditions: increasing doses, FIG. 7
Source text: Established rat arthritis was chosen as the most relevant predictive model for chronic inflammatory arthritis in man. The disease is initiated with a caudal injection of complete Freund's adjuvant and the disease is established after 14 days. Anti-inflammatory molecules are given orally, usually once a day and after 7 days the animals are sacrificed. Paw volumes are the primary measurement and as a secondary measure inflammatory lesions are scored at a number of sites. At autopsy adrenal, spleen and thymus weights are recorded.
The arthritis score for the rats was used in these studies, as the inflammatory disease consists of both destructive inflammatory arthritis, but also systemic manifestations.
This analysis uses the area under the curve of arthritis score over the course of the experiment to yield a single, integrated measure for each experimental animal. The area under the curve of the vehicle treated animal is indicated on the graph for comparison purposes, but marked at an arbitrary log dose.

[1] = target: T1, Glucocorticoid Receptor (GR) (Homo sapiens, UniProt P04150); assay: Transactivation assay (MMTV-Luc reporter in HeLa cells); format: cell-based; conditions: comparison table; against maximal activation seen with dexamethasone
T1 construct: Cells were transfected the next day with MMTV-Luc (5 μg) and pGL4-hRLuc (0.1 μg); endogenous in cells; host or cells: HeLa
T1 sequence (P04150 1-777): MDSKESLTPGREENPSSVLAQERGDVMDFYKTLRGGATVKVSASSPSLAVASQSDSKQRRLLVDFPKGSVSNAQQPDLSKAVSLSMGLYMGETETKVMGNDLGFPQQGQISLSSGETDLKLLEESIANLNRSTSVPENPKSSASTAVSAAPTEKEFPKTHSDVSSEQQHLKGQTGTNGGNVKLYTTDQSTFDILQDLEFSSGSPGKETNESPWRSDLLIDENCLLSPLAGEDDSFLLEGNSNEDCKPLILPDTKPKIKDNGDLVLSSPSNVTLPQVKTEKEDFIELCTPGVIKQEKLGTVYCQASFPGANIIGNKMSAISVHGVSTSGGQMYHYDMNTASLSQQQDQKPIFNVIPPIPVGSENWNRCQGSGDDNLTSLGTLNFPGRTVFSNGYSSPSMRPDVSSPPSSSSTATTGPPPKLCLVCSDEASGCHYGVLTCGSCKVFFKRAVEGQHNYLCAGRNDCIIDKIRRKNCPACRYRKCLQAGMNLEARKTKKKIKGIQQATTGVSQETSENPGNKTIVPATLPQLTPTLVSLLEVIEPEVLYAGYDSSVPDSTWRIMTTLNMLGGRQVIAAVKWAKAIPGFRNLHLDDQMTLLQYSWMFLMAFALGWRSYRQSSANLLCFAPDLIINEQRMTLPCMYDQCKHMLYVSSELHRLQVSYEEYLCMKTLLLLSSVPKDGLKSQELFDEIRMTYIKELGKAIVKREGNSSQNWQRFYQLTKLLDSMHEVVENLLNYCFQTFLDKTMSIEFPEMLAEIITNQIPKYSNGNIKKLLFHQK
Method: (§1) HeLa cells were seeded at 80×10^4 cells/dish in 100 mm dishes. Cells were transfected the next day with MMTV-Luc (5 μg) and pGL4-hRLuc (0.1 μg), in 250 μL of Opti-MEM I using FuGENE HD (15 μL). After 24 hours, cells were trypsinized and seeded into 96-well plates at a density of 8-10×10^4 cells/mL.
Following overnight incubation to allow attachment, cells were treated with the required concentration of compounds, then further incubated for 16 hours. Media was aspirated and cells lysed in 40 μL of 1×PLB.
(§2) Firefly and Renilla luciferase activity was measured using the Dual Luciferase Reporter system following the manufacturer's protocol.
(§3) IC50 and EC50 values were calculated by using GraphPad Prism 5.0. Briefly, luminescence values for luciferase were normalised using the Renilla luminescence values. The normalised values were input into GraphPad Prism 5.0. Non-linear regression analysis was carried out using the “log(concentration) vs. response” equation of the software, with a Hill slope coefficient fixed at 1.
(§4) IC50 and EC50 values are mean values in nM of all IC50/EC50 values for the compound. Max % values are mean values of the Max% activity.

osteoblast activity = assay: Rat bone formation assay, serum osteocalcin; format: in vivo; conditions: daily oral, terminal (35 day) plasma, FIG. 9
Source text: For the analysis of bone metabolism, and its regulation by orally administered GC, a rat bone formation assay was used.
Terminal (35 day) plasma was harvested, and osteocalcin measured, as an integrated measure of osteoblast activity across the skeleton.

[2] = target: T2, mineralocorticoid receptor (MR) (Homo sapiens, UniProt P08235); assay: Steroid receptor cross-reactivity, mineralocorticoid receptor; format: cell-based; conditions: FIG. 3
T2 sequence (P08235 1-984): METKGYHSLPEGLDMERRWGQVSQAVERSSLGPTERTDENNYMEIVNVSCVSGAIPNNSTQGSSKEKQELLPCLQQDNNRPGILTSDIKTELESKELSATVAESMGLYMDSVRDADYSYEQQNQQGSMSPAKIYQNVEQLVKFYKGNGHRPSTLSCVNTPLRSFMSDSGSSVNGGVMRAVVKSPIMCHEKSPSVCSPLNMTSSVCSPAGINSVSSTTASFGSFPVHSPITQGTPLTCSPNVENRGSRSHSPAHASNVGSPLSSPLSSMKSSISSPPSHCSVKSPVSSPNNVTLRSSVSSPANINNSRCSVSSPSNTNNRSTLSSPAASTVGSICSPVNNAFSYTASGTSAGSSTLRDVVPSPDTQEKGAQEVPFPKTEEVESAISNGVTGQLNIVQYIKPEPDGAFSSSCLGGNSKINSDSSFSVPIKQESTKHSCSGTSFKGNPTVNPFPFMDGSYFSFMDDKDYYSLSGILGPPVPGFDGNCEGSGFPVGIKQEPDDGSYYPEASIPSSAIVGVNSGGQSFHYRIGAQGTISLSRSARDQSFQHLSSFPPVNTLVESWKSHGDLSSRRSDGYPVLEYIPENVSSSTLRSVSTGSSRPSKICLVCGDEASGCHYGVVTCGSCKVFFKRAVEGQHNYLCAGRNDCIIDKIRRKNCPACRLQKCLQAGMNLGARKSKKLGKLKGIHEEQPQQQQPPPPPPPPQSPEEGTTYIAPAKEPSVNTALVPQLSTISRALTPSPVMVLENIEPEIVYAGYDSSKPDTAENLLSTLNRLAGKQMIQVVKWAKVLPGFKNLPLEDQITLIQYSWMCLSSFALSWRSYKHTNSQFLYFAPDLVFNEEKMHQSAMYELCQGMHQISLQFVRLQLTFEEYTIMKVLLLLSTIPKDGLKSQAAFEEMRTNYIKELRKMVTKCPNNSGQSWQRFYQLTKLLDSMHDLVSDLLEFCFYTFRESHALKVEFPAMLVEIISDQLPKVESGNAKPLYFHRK
Source text: There is a high degree of structural similarity between the various human steroid receptors. Ligands may therefore cross-react with other members of the steroid receptor family. In particular progesterone receptor and mineralocorticoid receptor show the highest structural similarity.

NFkB = assay: Transrepression assay (NFκB-LUC reporter in HeLa cells, TNF stimulated); format: cell-based; conditions: comparison table
Method: as §1, with “NFκB-LUC reporter” for “MMTV-Luc”, “0.25 mL” for “250 μL”, “in to 24-well” for “into 96-well”, “cells/mL. Following overnight incubation, cells were starved for a further 24 hours in DMEM.” for “cells/mL.”
On the day of the experiment, compounds were added to cells one hour prior to the addition of […] (0.5 ng/mL). After a further 16 hours, cells were washed twice with ice-cold PBS, then lysed with 100 μL of 1×PLB.
as §2, §3, §4

endosteal bone formation = assay: Rat endosteal bone increment; format: in vivo; conditions: daily oral dose, FIG. 10
Source text: However, osteoblast activity is not uniform across the skeleton, which may result in either over, or under estimation of the steroid effect. In young, growing, rats long bone remodelling during bone growth offers an attractive model to study active bone formation as the endosteal surface has new bone formation as the diameter of the shaft decreases due to endosteal bone formation, and periosteal bone resorption. As shown in FIG. 11 (CT reconstruction) as long bones grow the diameter of the shaft at the growing end (20% mark) is greater than that towards the middle of the bone (30% and 40% marks) due to loss of bone at the outer surface, or periosteal surface, and deposition of bone, due to osteoblast action, on the inner surface, or endosteal surface.
In contrast, there was no effect of Dex124 seen until 100 mg/Kg, giving an estimated IC50 of approximately 90 mg/Kg.

GR = target: T3, GR (Homo sapiens, UniProt P04150); conditions: further analyses, Vayssiere et al. 1997; cited from earlier work
T3 sequence (P04150 1-777): T1 sequence (P04150 1-777)

apoptosis = conditions: cited from earlier work
progesterone receptor = target: T4, progesterone receptor (Homo sapiens, UniProt P06401); conditions: cited from earlier work
T4 sequence (P06401 1-933): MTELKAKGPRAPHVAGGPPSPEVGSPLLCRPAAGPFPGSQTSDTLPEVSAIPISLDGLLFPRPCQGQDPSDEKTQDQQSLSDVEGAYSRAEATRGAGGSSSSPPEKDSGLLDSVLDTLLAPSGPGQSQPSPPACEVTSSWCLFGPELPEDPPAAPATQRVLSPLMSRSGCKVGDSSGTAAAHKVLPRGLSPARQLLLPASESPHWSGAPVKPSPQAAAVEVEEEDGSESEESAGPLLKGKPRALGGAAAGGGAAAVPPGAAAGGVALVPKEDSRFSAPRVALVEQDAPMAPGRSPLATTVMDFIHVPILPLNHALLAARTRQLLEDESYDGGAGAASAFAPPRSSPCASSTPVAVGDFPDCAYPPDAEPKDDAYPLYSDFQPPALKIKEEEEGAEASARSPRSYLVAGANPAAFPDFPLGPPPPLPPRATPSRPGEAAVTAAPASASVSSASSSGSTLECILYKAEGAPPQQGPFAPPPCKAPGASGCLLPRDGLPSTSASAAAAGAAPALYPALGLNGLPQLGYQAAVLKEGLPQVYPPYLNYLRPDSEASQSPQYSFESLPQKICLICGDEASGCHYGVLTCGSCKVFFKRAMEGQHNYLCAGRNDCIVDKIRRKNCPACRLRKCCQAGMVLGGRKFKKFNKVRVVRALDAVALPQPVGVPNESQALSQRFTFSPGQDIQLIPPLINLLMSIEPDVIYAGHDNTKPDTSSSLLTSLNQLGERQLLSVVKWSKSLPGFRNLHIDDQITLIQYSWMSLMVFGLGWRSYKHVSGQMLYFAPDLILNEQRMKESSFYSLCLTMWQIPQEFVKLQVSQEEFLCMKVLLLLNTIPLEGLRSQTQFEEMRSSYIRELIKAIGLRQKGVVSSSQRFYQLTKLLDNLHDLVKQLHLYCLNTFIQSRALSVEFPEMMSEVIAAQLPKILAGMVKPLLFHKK

TA % [1] [%]	activity on mineralocorticoid receptor [2]	IC50 (NFkB; Homo sapiens, HeLa, half-maximal repression of NFkB, multiple experiments, read-out: IC50) [µM]	IC50 for decrease in bone increment (endosteal bone formation) [mg/kg]	Compound	arthritis clinical score (AUC) (rat adjuvant arthritis)	osteocalcin concentration (osteoblast activity)	TR % (NFkB; maximal NFkB repression compared to Dexamethasone) [%]	GR agonist character (GR)	induction of apoptosis (apoptosis)	progesterone receptor activation (progesterone receptor)
68	significant activity	0.0129	7.8	C[C@]12C=CC(=O)C=C1CC[C@@H]1[C@@H]2[C@@H](O)C[C@@]2(C)[C@H]1CC[C@]2(O)C(=O)CO [Pred, prednisolone]	inhibit arthritis clinical score	dose-dependent inhibition of osteocalcin concentration	99			
				C[C@@H]1C[C@H]2[C@@H]3CCC4=CC(=O)C=C[C@]4(C)[C@@]3(F)[C@@H](O)C[C@]2(C)[C@H]1C(=O)CC#N [RU24858]				low potency, low efficacy full agonist	does not induce apoptosis	activating the progesterone receptor
